Tested on: HBsAg
Assay: HBsAg assay (chemiluminescence immunoassay of secreted HBsAg)
Type: cell-based, HBV
Details: Hepatitis B virus, HepG2.2.15, HBsAg secretion, HepG2.2.15 cells, CLIA of culture supernatant
How it was run: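 HepG2.2.15 cells, in duplicate, treated with three-fold serial compound dilutions (1% DMSO final); secreted HBsAg in supernatant quantified by chemiluminescence immunoassay; IC50 is the concentration reducing HBsAg secretion by 50% versus the DMSO control.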

With `COC1CN(c2cc(F)cc(N3CCc4nc(-c5ncccn5)ncc4C3C)n2)C1` (stereo not drawn) [Example 111, 6-[4-fluoro-6-(3-methoxyazetidin-1-yl)-2-pyridyl]-5-methyl-2-pyrimidin-2-yl-7,8-dihydro-5H-pyrido[4,3-d]pyrimidine] the IC50 was 26 nM.
Compound `CC(=O)N1CC(Nc2cc(F)cc(N3CCc4nc(-c5ncccn5)ncc4C3C)n2)C1` (stereo not drawn) [Example 139, 1-[3-[[4-fluoro-6-(5-methyl-2-pyrimidin-2-yl-7,8-dihydro-5H-pyrido[4,3-d]pyrimidin-6-yl)-2-pyridyl]amino]azetidin-1-yl]ethanone] has an IC50 of 1550 nM.
In the case of `COC1CN(c2cc(N3CCc4nc(-c5ncccn5)ncc4C3C)cc(F)n2)C1` (stereo not drawn) [Example 148, 6-[2-Fluoro-6-(3-methoxyazetidin-1-yl)-4-pyridyl]-5-methyl-2-pyrimidin-2-yl-7,8-dihydro-5H-pyrido[4,3-d]pyrimidine], the IC50 is reported as 21 nM.
`CC1c2cnc(-c3ncccn3)nc2CCN1c1cc(NC(=O)CO)cc(F)n1` (stereo not drawn) [Example 3, N-[2-Fluoro-6-(5-methyl-2-pyrimidin-2-yl-7,8-dihydro-5H-pyrido[4,3-d]pyrimidin-6-yl)-4-pyridyl]-2-hydroxy-acetamide] showed an IC50 of 60 nM.
`CC1c2cnc(-c3ncccn3)nc2CCN1c1cc(F)cc(N2CCOC(CO)C2)n1` (stereo not drawn) [Example 25, [4-[4-fluoro-6-(5-methyl-2-pyrimidin-2-yl-7,8-dihydro-5H-pyrido[4,3-d]pyrimidin-6-yl)-2-pyridyl]morpholin-2-yl]methanol] gave an IC50 of 46 nM.
With `CC1c2cnc(-c3ncccn3)nc2CCN1c1cc(F)cc(N2CC(C(=O)O)C2)n1` (stereo not drawn) [Example 53, 1-[4-fluoro-6-(5-methyl-2-pyrimidin-2-yl-7,8-dihydro-5H-pyrido[4,3-d]pyrimidin-6-yl)-2-pyridyl]azetidine-3-carboxylic acid] the IC50 was 4710 nM.
In the case of `COC1CCN(c2cc(N3CCc4nc(-c5ncccn5)ncc4C3C)cc(F)n2)C1` (stereo not drawn) [Example 108, 6-[2-Fluoro-6-(3-methoxypyrrolidin-1-yl)-4-pyridyl]-5-methyl-2-pyrimidin-2-yl-7,8-dihydro-5H-pyrido[4,3-d]pyrimidine], the IC50 is reported as 13 nM.
`CC1c2cnc(-c3ncccn3)nc2CCN1c1cc(F)cc(NCCCCCC(=O)O)n1` (stereo not drawn) [Example 2, 6-[[4-fluoro-6-(5-methyl-2-pyrimidin-2-yl-7,8-dihydro-5H-pyrido[4,3-d]pyrimidin-6-yl)-2-pyridyl]amino]hexanoic acid] showed an IC50 of 155 nM.
`CC(=O)NC1CN(c2cc(F)cc(N3CCc4nc(-c5ncccn5)ncc4C3C)n2)C1` (stereo not drawn) [Example 131, N-[1-[4-fluoro-6-(5-methyl-2-pyrimidin-2-yl-7,8-dihydro-5H-pyrido[4,3-d]pyrimidin-6-yl)-2-pyridyl]azetidin-3-yl]acetamide] gave an IC50 of 43 nM.
In the case of `CC1c2cnc(-c3ccccn3)nc2CCN1c1cc(F)cc(N2CCC(C(N)=O)CC2)n1` (stereo not drawn) [Example 74, 1-[4-fluoro-6-[5-methyl-2-(2-pyridyl)-7,8-dihydro-5H-pyrido[4,3-d]pyrimidin-6-yl]-2-pyridyl]piperidine-4-carboxamide], the IC50 is reported as 19 nM.
Compound `CC1c2cnc(-c3ncccn3)nc2CCN1c1cc(N2CCN(CC(N)=O)CC2)cc(F)n1` (stereo not drawn) [Example 102, 2-[4-[2-fluoro-6-(5-methyl-2-pyrimidin-2-yl-7,8-dihydro-5H-pyrido[4,3-d]pyrimidin-6-yl)-4-pyridyl]piperazin-1-yl]acetamide] has an IC50 of 29 nM.
`CC1c2cnc(-c3ccccn3)nc2CCN1c1cc(F)cc(N2CCC(O)C2)n1` (stereo not drawn) [Example 59, 1-[4-fluoro-6-[5-methyl-2-(2-pyridyl)-7,8-dihydro-5H-pyrido[4,3-d]pyrimidin-6-yl]-2-pyridyl]pyrrolidin-3-ol] was tested, and the IC50 was 26 nM.
For `CC1c2cnc(-c3ncccn3)nc2CCN1c1cc(N2CCOC(CC(=O)O)C2)cc(F)n1` (stereo not drawn) [Example 28, 2-[4-[2-fluoro-6-(5-methyl-2-pyrimidin-2-yl-7,8-dihydro-5H-pyrido[4,3-d]pyrimidin-6-yl)-4-pyridyl]morpholin-2-yl]acetic acid], the IC50 was 1820 nM.
With `CC1c2cnc(-c3ncccn3)nc2CCN1c1cc(N2CCC(F)(F)C2)cc(F)n1` (stereo not drawn) [Example 22, 6-[4-(3,3-difluoropyrrolidin-1-yl)-6-fluoro-2-pyridyl]-5-methyl-2-pyrimidin-2-yl-7,8-dihydro-5H-pyrido[4,3-d]pyrimidine] the IC50 was 4 nM.
For `COCC1CN(c2cc(F)cc(N3CCc4nc(-c5ncccn5)ncc4C3C)n2)CCO1` (stereo not drawn) [Example 15, 4-[4-fluoro-6-(5-methyl-2-pyrimidin-2-yl-7,8-dihydro-5H-pyrido[4,3-d]pyrimidin-6-yl)-2-pyridyl]-2-(methoxymethyl)morpholine], the IC50 was 30 nM.
In the case of `CC1c2cnc(-c3ncccn3)nc2CCN1c1cc(F)cc(N2CCC(C(=O)O)CC2)n1` (stereo not drawn) [Example 51, 1-[4-fluoro-6-(5-methyl-2-pyrimidin-2-yl-7,8-dihydro-5H-pyrido[4,3-d]pyrimidin-6-yl)-2-pyridyl]piperidine-4-carboxylic acid], the IC50 is reported as 346 nM.
Compound `CC1c2cnc(-c3ncccn3)nc2CCN1c1cc(N2CCN(CC(=O)O)CC2)cc(F)n1` (stereo not drawn) [Example 94, 2-[4-[2-fluoro-6-(5-methyl-2-pyrimidin-2-yl-7,8-dihydro-5H-pyrido[4,3-d]pyrimidin-6-yl)-4-pyridyl]piperazin-1-yl]acetic acid] has an IC50 of 8860 nM.
`CC1c2cnc(-c3ccccn3)nc2CCN1c1cc(N2CCC(C(=O)O)C2)cc(F)n1` (stereo not drawn) [Example 68, 1-[2-fluoro-6-[5-methyl-2-(2-pyridyl)-7,8-dihydro-5H-pyrido[4,3-d]pyrimidin-6-yl]-4-pyridyl]pyrrolidine-3-carboxylic acid] gave an IC50 of 215 nM.
For `CC1c2cnc(-c3ncccn3)nc2CCN1c1cc(N2CC(C(=O)O)C2)cc(F)n1` (stereo not drawn) [Example 54, 1-[2-fluoro-6-(5-methyl-2-pyrimidin-2-yl-7,8-dihydro-5H-pyrido[4,3-d]pyrimidin-6-yl)-4-pyridyl]azetidine-3-carboxylic acid], the IC50 was 6340 nM.
With `CC1c2cnc(-c3ccccn3)nc2CCN1c1cc(N2CCCC(C(N)=O)C2)cc(F)n1` (stereo not drawn) [Example 75, 1-[2-fluoro-6-[5-methyl-2-(2-pyridyl)-7,8-dihydro-5H-pyrido[4,3-d]pyrimidin-6-yl]-4-pyridyl]piperidine-3-carboxamide] the IC50 was 39 nM.
`CC1c2cnc(-c3ncccn3)nc2CCN1c1cc(N2CCC(C(N)=O)C2)cc(F)n1` (stereo not drawn) [Example 44, 1-[2-fluoro-6-(5-methyl-2-pyrimidin-2-yl-7,8-dihydro-5H-pyrido[4,3-d]pyrimidin-6-yl)-4-pyridyl]pyrrolidine-3-carboxamide] showed an IC50 of 54 nM.
With `CC1c2cnc(-c3ncccn3)nc2CCN1c1cc(N2CCC3(CCOC3)C2)cc(F)n1` (stereo not drawn) [Example 12, 7-[2-fluoro-6-(5-methyl-2-pyrimidin-2-yl-7,8-dihydro-5H-pyrido[4,3-d]pyrimidin-6-yl)-4-pyridyl]-2-oxa-7-azaspiro[4.4]nonane] the IC50 was 8 nM.
Compound `CC1c2cnc(-c3ncccn3)nc2CCN1c1cc(N2CC(NS(C)(=O)=O)C2)cc(F)n1` (stereo not drawn) [Example 119, N-[1-[2-fluoro-6-(5-methyl-2-pyrimidin-2-yl-7,8-dihydro-5H-pyrido[4,3-d]pyrimidin-6-yl)-4-pyridyl]azetidin-3-yl]methanesulfonamide] has an IC50 of 57 nM.
`CC(=O)N1CCN(c2cc(F)nc(N3CCc4nc(-c5ncccn5)ncc4C3C)c2)C(=O)C1` (stereo not drawn) [Example 127, 4-Acetyl-1-[2-fluoro-6-(5-methyl-2-pyrimidin-2-yl-7,8-dihydro-5H-pyrido[4,3-d]pyrimidin-6-yl)-4-pyridyl]piperazin-2-one] was tested, and the IC50 was 494 nM.
Compound `CC1c2cnc(-c3ncccn3)nc2CCN1c1cc(F)cc(N2CC(F)(F)C2)n1` (stereo not drawn) [Example 125, 6-[6-(3,3-difluoroazetidin-1-yl)-4-fluoro-2-pyridyl]-5-methyl-2-pyrimidin-2-yl-7,8-dihydro-5H-pyrido[4,3-d]pyrimidine] has an IC50 of 38 nM.
`CC1c2cnc(-c3ncccn3)nc2CCN1c1cc(N2C3CCC2COC3)cc(F)n1` (stereo not drawn) [Example 10, 8-[2-fluoro-6-(5-methyl-2-pyrimidin-2-yl-7,8-dihydro-5H-pyrido[4,3-d]pyrimidin-6-yl)-4-pyridyl]-3-oxa-8-azabicyclo[3.2.1]octane] was tested, and the IC50 was 39 nM.
`CC1c2cnc(-c3ccccn3)nc2CCN1c1cc(F)cc(N2CCCC(C(N)=O)C2)n1` (stereo not drawn) [Example 76, 1-[4-fluoro-6-[5-methyl-2-(2-pyridyl)-7,8-dihydro-5H-pyrido[4,3-d]pyrimidin-6-yl]-2-pyridyl]piperidine-3-carboxamide] gave an IC50 of 44 nM.
`CC(=O)NC1CN(c2cc(F)nc(N3CCc4nc(-c5ncccn5)ncc4C3C)c2)C1` (stereo not drawn) [Example 132, N-[1-[2-fluoro-6-(5-methyl-2-pyrimidin-2-yl-7,8-dihydro-5H-pyrido[4,3-d]pyrimidin-6-yl)-4-pyridyl]azetidin-3-yl]acetamide] showed an IC50 of 24 nM.
Work on `CC1c2cnc(-c3ncccn3)nc2CCN1c1cc(N2CCS(=O)(=O)CC2)cc(F)n1` (stereo not drawn) [Example 146, 4-[2-Fluoro-6-(5-methyl-2-pyrimidin-2-yl-7,8-dihydro-5H-pyrido[4,3-d]pyrimidin-6-yl)-4-pyridyl]-1,4-thiazinane1,1-dioxide] yielded an IC50 of 38 nM.
`CC1c2cnc(-c3ncccn3)nc2CCN1c1cc(N2CC(CO)C2)cc(F)n1` (stereo not drawn) [Example 135, [1-[2-fluoro-6-(5-methyl-2-pyrimidin-2-yl-7,8-dihydro-5H-pyrido[4,3-d]pyrimidin-6-yl)-4-pyridyl]azetidin-3-yl]methanol] was tested, and the IC50 was 8 nM.
Work on `CC1CN(c2cc(F)nc(N3CCc4nc(-c5ncccn5)ncc4C3C)c2)CC(=O)N1` (stereo not drawn) [Example 134, 4-[2-fluoro-6-(5-methyl-2-pyrimidin-2-yl-7,8-dihydro-5H-pyrido[4,3-d]pyrimidin-6-yl)-4-pyridyl]-6-methyl-piperazin-2-one] yielded an IC50 of 15 nM.
In the case of `CC1c2cnc(-c3ccccn3)nc2CCN1c1cc(NCC(F)F)cc(F)n1` (stereo not drawn) [Example 79], the IC50 is reported as 71 nM.
For `CC1c2cnc(-c3ncccn3)nc2CCN1c1cc(N(C)CCCCC(N)=O)cc(F)n1` (stereo not drawn) [Example 141, 5-[[2-fluoro-6-(5-methyl-2-pyrimidin-2-yl-7,8-dihydro-5H-pyrido[4,3-d]pyrimidin-6-yl)-4-pyridyl]-methyl-amino]pentanamide], the IC50 was 43 nM.

From patent US11104674B2 (Hoffmann-La Roche Inc., priority 2016, dated 2021)
